{
  "source": "patent US8580794B2",
  "about": "(AbbVie Inc., priority 2009, dated 2013)",
  "data": [
    {"biological_target": "GST-Bc1-2 (Homo sapiens, UniProt P10415)", "sequence (P10415 whole entry)": "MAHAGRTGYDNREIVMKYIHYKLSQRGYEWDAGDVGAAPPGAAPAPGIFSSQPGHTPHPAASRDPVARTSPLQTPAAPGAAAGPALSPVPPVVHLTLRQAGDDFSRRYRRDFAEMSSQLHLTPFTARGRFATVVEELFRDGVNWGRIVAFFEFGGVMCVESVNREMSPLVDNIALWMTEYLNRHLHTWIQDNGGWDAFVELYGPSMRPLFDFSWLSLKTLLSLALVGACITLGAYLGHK", "assay": "Time Resolved-Fluorescence Resonance Energy Transfer (TR-FRET) Bcl-2 binding assay with F-Bak peptide probe", "conditions": "GST-Bcl-2 1 nM, F-Bak probe 100 nM, Tb-anti-GST 1 nM; '<' = below limit of detection; read-out: TR-FRET Bcl-2 Binding Ki", "units": {"Ki": "nM"}, "values": [
      {"smiles": "CC1(C)CCC(CN2CCN(c3ccc(C(=O)NS(=O)(=O)c4ccc(N[C@@H]5CCN(CC(F)F)C5)c([N+](=O)[O-])c4)c(Oc4cnc5[nH]ccc5c4)c3)CC2)=C(c2ccc(Cl)cc2)C1", "note": "[Example 180, 4-(4-{[2-(4-chlorophenyl)-4,4-dimethylcyclohex-1-en-1-yl]methyl}piperazin-1-yl)-N-[(4-{[(3R)-1-(2,2-difluoroethyl)pyrrolidin-3-yl]amino}-3-nitrophenyl)sulfonyl]-2-(1H-pyrrolo[2,3-b]pyridin-5-yloxy)benzamide]", "Ki": "< 0.01"},
      {"smiles": "CC1(C)CCC(CN2CCN(c3ccc(C(=O)NS(=O)(=O)c4ccc(N[C@@H]5CCN(S(C)(=O)=O)C5)c([N+](=O)[O-])c4)c(Oc4cnc5[nH]ccc5c4)c3)CC2)=C(c2ccc(Cl)cc2)C1", "note": "[Example 149, 4-(4-{[2-(4-chlorophenyl)-4,4-dimethylcyclohex-1-en-1-yl]methyl}piperazin-1-yl)-N-[(4-{[(3R)-1-(methylsulfonyl)pyrrolidin-3-yl]amino}-3-nitrophenyl)sulfonyl]-2-(1H-pyrrolo[2,3-b]pyridin-5-yloxy)benzamide]", "Ki": "< 0.01"},
      {"smiles": "CC(C)N1CCC2(CCC(c3ccc(Cl)cc3)=C(CN3CCN(c4ccc(C(=O)NS(=O)(=O)c5ccc(NCC6CCOCC6)c(C(F)(F)F)c5)c(Oc5cnc6[nH]ccc6c5)c4)CC3)C2)CC1", "note": "[Example 273, 4-(4-{[9-(4-chlorophenyl)-3-isopropyl-3-azaspiro[5.5]undec-8-en-8-yl]methyl}piperazin-1-yl)-2-(1H-pyrrolo[2,3-b]pyridin-5-yloxy)-N-({4-[(tetrahydro-2H-pyran-4-ylmethyl)amino]-3-(trifluoromethyl)phenyl}sulfonyl)benzamide]", "Ki": 0.035},
      {"smiles": "CC1(C)CCC(CN2CCN(c3ccc(C(=O)NS(=O)(=O)c4ccc(NCC(F)(F)F)c([N+](=O)[O-])c4)c(Oc4cnc5[nH]ccc5c4)c3)CC2)=C(c2ccc(Cl)cc2)C1", "note": "[Example 26, 4-(4-{[2-(4-chlorophenyl)-4,4-dimethylcyclohex-1-en-1-yl]methyl}piperazin-1-yl)-N-({3-nitro-4-[(2,2,2-trifluoroethyl)amino]phenyl}sulfonyl)-2-(1H-pyrrolo[2,3-b]pyridin-5-yloxy)benzamide]", "Ki": 0.011},
      {"smiles": "CC1(C)CCC(CN2CCN(c3ccc(C(=O)NS(=O)(=O)c4cnc(OCC5(F)CCOCC5)c(Cl)c4)c(Oc4cnc5[nH]ccc5c4)c3)CC2)=C(c2ccc(Cl)cc2)C1", "note": "[Example 96, N-({5-chloro-6-[(4-fluorotetrahydro-2H-pyran-4-yl)methoxy]pyridin-3-yl}sulfonyl)-4-(4-{[2-(4-chlorophenyl)-4,4-dimethylcyclohex-1-en-1-yl]methyl}piperazin-1-yl)-2-(1H-pyrrolo[2,3-b]pyridin-5-yloxy)benzamide]", "Ki": 0.014},
      {"smiles": "CC1(C)CCC(CN2CCN(c3ccc(C(=O)NS(=O)(=O)c4cnc(OCC5CCOCC5)c(C(F)(F)F)c4)c(Oc4cnc5[nH]ccc5c4)c3)CC2)=C(c2ccc(Cl)cc2)C1", "note": "[Example 297, 4-(4-{[2-(4-chlorophenyl)-4,4-dimethylcyclohex-1-en-1-yl]methyl}piperazin-1-yl)-2-(1H-pyrrolo[2,3-b]pyridin-5-yloxy)-N-{[6-(tetrahydro-2H-pyran-4-ylmethoxy)-5-(trifluoromethyl)pyridin-3-yl]sulfonyl}benzamide]", "Ki": 0.174},
      {"smiles": "CN1CCC(Nc2ccc(S(=O)(=O)NC(=O)c3ccc(N4CCN(CC5=C(c6ccc(Cl)cc6)CC(C)(C)OC5)CC4)cc3Oc3cnc4[nH]ccc4c3)cc2S(=O)(=O)C(F)(F)F)CC1", "note": "[Example 45, 4-(4-{[4-(4-chlorophenyl)-6,6-dimethyl-5,6-dihydro-2H-pyran-3-yl]methyl}piperazin-1-yl)-N-({4-[(1-methylpiperidin-4-yl)amino]-3-[(trifluoromethyl)sulfonyl]phenyl}sulfonyl)-2-(1H-pyrrolo[2,3-b]pyridin-5-yloxy)benzamide]", "Ki": "< 0.01"},
      {"smiles": "CC1(C)CCC(CN2CCN(c3ccc(C(=O)NS(=O)(=O)c4ccc(OCC5(C)CCOCC5)c([N+](=O)[O-])c4)c(Oc4cnc5[nH]ccc5c4)c3)CC2)=C(c2ccc(Cl)cc2)C1", "note": "[Example 221, 4-(4-{[2-(4-chlorophenyl)-4,4-dimethylcyclohex-1-en-1-yl]methyl}piperazin-1-yl)-N-({4-[(4-methyltetrahydro-2H-pyran-4-yl)methoxy]-3-nitrophenyl}sulfonyl)-2-(1H-pyrrolo[2,3-b]pyridin-5-yloxy)benzamide]", "Ki": 0.049},
      {"smiles": "CC1(C)CCC(CN2CCN(c3ccc(C(=O)NS(=O)(=O)c4cc(F)c(NCC5CCOCC5)c(Cl)c4)c(Oc4cnc5[nH]ccc5c4)c3)CC2)=C(c2ccc(Cl)cc2)C1", "note": "[Example 86, N-({3-chloro-5-fluoro-4-[(tetrahydro-2H-pyran-4-ylmethyl)amino]phenyl}sulfonyl)-4-(4-{[2-(4-chlorophenyl)-4,4-dimethylcyclohex-1-en-1-yl]methyl}piperazin-1-yl)-2-(1H-pyrrolo[2,3-b]pyridin-5-yloxy)benzamide]", "Ki": 0.498},
      {"smiles": "CC1(C)CCC(CC2CCN(c3ccc(C(=O)NS(=O)(=O)c4ccc(OCC5CCOCC5)c(Cl)c4)c(Oc4cnc5[nH]ccc5c4)c3)CC2)=C(c2ccc(Cl)cc2)C1", "note": "[Example 316, 4-(4-{[2-(4-chlorophenyl)-4,4-dimethylcyclohex-1-en-1-yl]methyl}piperidin-1-yl)-N-{[3-chloro-4-(tetrahydro-2H-pyran-4-ylmethoxy)phenyl]sulfonyl}-2-(1H-pyrrolo[2,3-b]pyridin-5-yloxy)benzamide]", "Ki": 0.601},
      {"smiles": "O=C(NS(=O)(=O)c1ccc(NC[C@H]2CC[C@H](O)CC2)c([N+](=O)[O-])c1)c1ccc(N2CCN(CC3=C(c4ccc(Cl)cc4)CCC(F)(F)C3)CC2)cc1Oc1cnc2[nH]ccc2c1", "note": "[Example 324, 4-(4-{[2-(4-chlorophenyl)-5,5-difluorocyclohex-1-en-1-yl]methyl}piperazin-1-yl)-N-[(4-{[(trans-4-hydroxycyclohexyl)methyl]amino}-3-nitrophenyl)sulfonyl]-2-(1H-pyrrolo[2,3-b]pyridin-5-yloxy)benzamide]", "Ki": "< 0.01"},
      {"smiles": "CC1(C)CCC(CN2CCN(c3ccc(C(=O)NS(=O)(=O)c4ccc(NCCC#N)c([N+](=O)[O-])c4)c(Oc4cnc5[nH]ccc5c4)c3)CC2)=C(c2ccc(Cl)cc2)C1", "note": "[Example 62, 4-(4-{[2-(4-chlorophenyl)-4,4-dimethylcyclohex-1-en-1-yl]methyl}piperazin-1-yl)-N-({4-[(2-cyanoethyl)amino]-3-nitrophenyl}sulfonyl)-2-(1H-pyrrolo[2,3-b]pyridin-5-yloxy)benzamide]", "Ki": "< 0.01"},
      {"smiles": "CC1(C)CCC(CN2CCN(c3ccc(C(=O)NS(=O)(=O)c4ccc(N[C@@H]5CCN(C6CCOCC6)C5)c([N+](=O)[O-])c4)c(Oc4cnc5[nH]ccc5c4)c3)CC2)=C(c2ccc(Cl)cc2)C1", "note": "[Example 130, 4-(4-{[2-(4-chlorophenyl)-4,4-dimethylcyclohex-1-en-1-yl]methyl}piperazin-1-yl)-N-[(3-nitro-4-{[(3R)-1-tetrahydro-2H-pyran-4-ylpyrrolidin-3-yl]amino}phenyl)sulfonyl]-2-(1H-pyrrolo[2,3-b]pyridin-5-yloxy)benzamide]", "Ki": "< 0.01"},
      {"smiles": "O=C(NS(=O)(=O)c1ccc(NCCCN2CCOCC2)c([N+](=O)[O-])c1)c1ccc(N2CCN(Cc3ccccc3-c3ccc(Cl)cc3)CC2)cc1Oc1ccc2[nH]ccc2c1", "note": "[Example 88, 4-{4-[(4′-chloro-1,1′-biphenyl-2-yl)methyl]piperazin-1-yl}-2-(1H-indol-5-yloxy)-N-({4-[(3-morpholin-4-ylpropyl)amino]-3-nitrophenyl}sulfonyl)benzamide]", "Ki": 0.672},
      {"smiles": "CC1(C)CC(c2ccc(Cl)cc2)=C(CN2CCN(c3ccc(C(=O)NS(=O)(=O)c4ccc(NCC5CCOCC5)c(S(=O)(=O)C(F)(F)F)c4)c(Oc4cnc5[nH]ccc5c4)c3)CC2)CO1", "note": "[Example 43, 4-(4-{[4-(4-chlorophenyl)-6,6-dimethyl-5,6-dihydro-2H-pyran-3-yl]methyl}piperazin-1-yl)-2-(1H-pyrrolo[2,3-b]pyridin-5-yloxy)-N-({4-[(tetrahydro-2H-pyran-4-ylmethyl)amino]-3-[(trifluoromethyl)sulfonyl]phenyl}sulfonyl)benzamide]", "Ki": 0.012},
      {"smiles": "COCCNc1ccc(S(=O)(=O)NC(=O)c2ccc(N3CCN(CC4=C(c5ccc(Cl)cc5)CC(C)(C)CC4)CC3)cc2Oc2ccc3[nH]ccc3c2)cc1S(=O)(=O)C(F)(F)F", "note": "[Example 93, 4-(4-{[2-(4-chlorophenyl)-4,4-dimethylcyclohex-1-en-1-yl]methyl}piperazin-1-yl)-2-(1H-indol-5-yloxy)-N-({4-[(2-methoxyethyl)amino]-3-[(trifluoromethyl)sulfonyl]phenyl}sulfonyl)benzamide]", "Ki": 3.46},
      {"smiles": "CC1(C)CCC(CN2CCN(c3ccc(C(=O)NS(=O)(=O)c4ccc(OCC5(F)CCOCC5)c(Cl)c4)c(Oc4cnc5[nH]ccc5c4)c3)CC2)=C(c2ccc(Cl)cc2)C1", "note": "[Example 286, N-({3-chloro-4-[(4-fluorotetrahydro-2H-pyran-4-yl)methoxy]phenyl}sulfonyl)-4-(4-{[2-(4-chlorophenyl)-4,4-dimethylcyclohex-1-en-1-yl]methyl}piperazin-1-yl)-2-(1H-pyrrolo[2,3-b]pyridin-5-yloxy)benzamide]", "Ki": "< 0.01"},
      {"smiles": "CC(C)(CO)CNc1ccc(S(=O)(=O)NC(=O)c2ccc(N3CCN(CC4=C(c5ccc(Cl)cc5)CC(C)(C)CC4)CC3)cc2Oc2cnc3[nH]ccc3c2)cc1[N+](=O)[O-]", "note": "[Example 146, 4-(4-{[2-(4-chlorophenyl)-4,4-dimethylcyclohex-1-en-1-yl]methyl}piperazin-1-yl)-N-({4-[(3-hydroxy-2,2-dimethylpropyl)amino]-3-nitrophenyl}sulfonyl)-2-(1H-pyrrolo[2,3-b]pyridin-5-yloxy)benzamide]", "Ki": "< 0.01"},
      {"smiles": "CO[C@H]1CC[C@@H](CNc2ccc(S(=O)(=O)NC(=O)c3ccc(N4CCN(CC5=C(c6ccc(Cl)cc6)CC(C)(C)CC5)CC4)cc3Oc3cnc4[nH]ccc4c3)cc2[N+](=O)[O-])CC1", "note": "[Example 29, Cis-4-(4-{[2-(4-chlorophenyl)-4,4-dimethylcyclohex-1-en-1-yl]methyl}piperazin-1-yl)-N-[(4-{[(4-methoxycyclohexyl)methyl]amino}-3-nitrophenyl)sulfonyl]-2-(1H-pyrrolo[2,3-b]pyridin-5-yloxy)benzamide]", "Ki": "< 0.01"}
    ]},
    {"biological_target": "GST-Bc1-2 (Homo sapiens, UniProt P10415)", "assay": "Time Resolved-Fluorescence Resonance Energy Transfer (TR-FRET) Bcl-2 binding assay with F-Bak peptide probe", "conditions": "read-out: Bcl-2 FRET ki", "units": {"Ki": "nM"}, "values": [
      {"smiles": "COCCNc1ccc(S(=O)(=O)NC(=O)c2ccc(N3CCN(CC4=C(c5ccc(Cl)cc5)CC(C)(C)CC4)CC3)cc2Oc2ccc3[nH]ccc3c2)cc1S(=O)(=O)C(F)(F)F", "note": "[Example 93, 4-(4-{[2-(4-chlorophenyl)-4,4-dimethylcyclohex-1-en-1-yl]methyl}piperazin-1-yl)-2-(1H-indol-5-yloxy)-N-({4-[(2-methoxyethyl)amino]-3-[(trifluoromethyl)sulfonyl]phenyl}sulfonyl)benzamide]", "Ki": 35}
    ]}
  ]
}
